Laboratory results reported in patent US11963960B2 (Flash Therapeutics, LLC, priority 2020, dated 2024).

target: N-terminally GST-tagged HCK (75-526) (Homo sapiens (Human), UniProt P08631); assay: HCK Kinase Assay (ProFluor Src-Family Kinase Assay); assay type: biochemical; conditions: HCK inhibitory activity, 50 μM ATP; read-out: HCK Activity
Procedure: The procedure of ProFluor Src-Family Kinase Assay (Promega, Cat. No. V1271) was then followed. To the reaction was added 5 μL Protease solution and the mixture was incubated for 60 minutes at room temperature (22-25° C.), followed by 5 μL Stabilizer solution. The fluorescence signal was read on an Envision multilabel plate reader (Perkin Elmer). The R110 was then read at an excitation wavelength of 485 nm and an emission wavelength of 530 nm. The AMC signal was read at an excitation wavelength of 355 nm and an emission wavelength of 460 nm.

Sequence of N-terminally GST-tagged HCK (75-526) (P08631 75-526): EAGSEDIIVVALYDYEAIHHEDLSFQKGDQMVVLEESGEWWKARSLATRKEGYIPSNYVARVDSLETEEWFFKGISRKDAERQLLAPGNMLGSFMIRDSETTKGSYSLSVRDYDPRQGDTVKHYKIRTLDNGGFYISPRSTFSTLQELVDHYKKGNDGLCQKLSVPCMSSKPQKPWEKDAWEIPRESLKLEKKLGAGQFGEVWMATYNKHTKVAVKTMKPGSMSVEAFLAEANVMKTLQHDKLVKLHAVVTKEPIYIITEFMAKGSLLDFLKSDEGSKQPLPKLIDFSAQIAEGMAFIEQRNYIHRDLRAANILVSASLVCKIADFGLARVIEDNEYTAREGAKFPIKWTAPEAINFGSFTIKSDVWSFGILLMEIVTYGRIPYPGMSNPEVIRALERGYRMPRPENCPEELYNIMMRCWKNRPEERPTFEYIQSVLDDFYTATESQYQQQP

SMILES | IC50
Nc1ncnc2c1c(-c1ccc(Oc3ccccc3)cc1)cn2[C@H]1CC[C@H](N2CCCC(N)C2)CC1 (stereo partly drawn) [Example 54, 7-((trans)-4-(3-aminopiperidin-1-yl)cyclohexyl)-5-(4-phenoxyphenyl)-7H-pyrrolo[2,3-d]pyrimidin-4-amine] | < 0.05 µM
Nc1ncnc2c1c(-c1ccc(Oc3ccccc3)cc1)cn2[C@H]1CC[C@@H](N2CCCC(N)C2)CC1 (stereo partly drawn) [Example 55, 7-((cis)-4-(3-aminopiperidin-1-yl)cyclohexyl)-5-(4-phenoxyphenyl)-7H-pyrrolo[2,3-d]pyrimidin-4-amine] | < 0.05 µM
CN[C@@H]1CCCN([C@H]2CC[C@H](n3cc(-c4ccc(Oc5ccccc5)cc4)c4c(N)ncnc43)CC2)C1 [Example 60, 7-((trans)-4-((R)-3-(methylamino)piperidin-1-yl)cyclohexyl)-5-(4-phenoxyphenyl)-7H-pyrrolo[2,3-d]pyrimidin-4-amine] | < 0.05 µM
CN[C@@H]1CCCN([C@H]2CC[C@@H](n3cc(-c4ccc(Oc5ccccc5)cc4)c4c(N)ncnc43)CC2)C1 [Example 61, 7-((cis)-4-((R)-3-(methylamino)piperidin-1-yl)cyclohexyl)-5-(4-phenoxyphenyl)-7H-pyrrolo[2,3-d]pyrimidin-4-amine] | < 0.05 µM
CN(C)[C@@H]1CCCN([C@H]2CC[C@H](n3cc(-c4ccc(Oc5ccccc5)cc4)c4c(N)ncnc43)CC2)C1 [Example 62, 7-((trans)-4-((R)-3-(dimethylamino)piperidin-1-yl)cyclohexyl)-5-(4-phenoxyphenyl)-7H-pyrrolo[2,3-d]pyrimidin-4-amine] | < 0.05 µM
Nc1ncnc2c1c(-c1ccc(Oc3ccccc3)cc1)cn2[C@H]1CC[C@H](N2CCC(S(N)(=O)=O)CC2)CC1 [Example 69, 1-((trans)-4-(4-amino-5-(4-phenoxyphenyl)-7H-pyrrolo[2,3-d]pyrimidin-7-yl)cyclohexyl)piperidine-4-sulfonamide] | 0.05 to 0.25 µM
Nc1ncnc2c1c(-c1ccc(Oc3ccccc3)cc1)cn2[C@H]1CC[C@@H](N2CCC(S(N)(=O)=O)CC2)CC1 [Example 70, 1-((cis)-4-(4-amino-5-(4-phenoxyphenyl)-7H-pyrrolo[2,3-d]pyrimidin-7-yl)cyclohexyl)piperidine-4-sulfonamide] | 0.05 to 0.25 µM
CN(C)[C@H]1CN([C@H]2CC[C@H](n3cc(-c4ccc(Oc5ccccc5)cc4)c4c(N)ncnc43)CC2)C[C@H]1O [Example 71, (3R,4S)-1-((trans)-4-(4-amino-5-(4-phenoxyphenyl)-7H-pyrrolo[2,3-d]pyrimidin-7-yl)cyclohexyl)-4-(dimethylamino)pyrrolidin-3-ol] | < 0.05 µM
CN(C)[C@H]1CN([C@H]2CC[C@@H](n3cc(-c4ccc(Oc5ccccc5)cc4)c4c(N)ncnc43)CC2)C[C@H]1O [Example 72, (3R,4S)-1-((cis)-4-(4-amino-5-(4-phenoxyphenyl)-7H-pyrrolo[2,3-d]pyrimidin-7-yl)cyclohexyl)-4-(dimethylamino)pyrrolidin-3-ol] | < 0.05 µM
CN(C)[C@@H]1CN([C@H]2CC[C@H](n3cc(-c4ccc(Oc5ccccc5)cc4F)c4c(N)ncnc43)CC2)C[C@H]1O [Example 73, (3R,4R)-1-((trans)-4-(4-amino-5-(2-fluoro-4-phenoxyphenyl)-7H-pyrrolo[2,3-d]pyrimidin-7-yl)cyclohexyl)-4-(dimethylamino)pyrrolidin-3-ol] | < 0.05 µM
CN(C)[C@@H]1CN([C@H]2CC[C@@H](n3cc(-c4ccc(Oc5ccccc5)cc4F)c4c(N)ncnc43)CC2)C[C@H]1O [Example 74, (3R,4R)-1-((cis)-4-(4-amino-5-(2-fluoro-4-phenoxyphenyl)-7H-pyrrolo[2,3-d]pyrimidin-7-yl)cyclohexyl)-4-(dimethylamino)pyrrolidin-3-ol] | 0.05 to 0.25 µM
Nc1ncnc2c1c(-c1ccc(Oc3ccccc3)cc1)cn2[C@H]1CC[C@H](N2C[C@@H](O)[C@@H](O)C2)CC1 [Example 75, (3R,4S)-1-((trans)-4-(4-amino-5-(4-phenoxyphenyl)-7H-pyrrolo[2,3-d]pyrimidin-7-yl)cyclohexyl)pyrrolidine-3,4-diol] | 0.05 to 0.25 µM
Nc1ncnc2c1c(-c1ccc(Oc3ccccc3)cc1)cn2[C@H]1CC[C@@H](N2C[C@@H](O)[C@@H](O)C2)CC1 [Example 76, (3R,4S)-1-((cis)-4-(4-amino-5-(4-phenoxyphenyl)-7H-pyrrolo[2,3-d]pyrimidin-7-yl)cyclohexyl)pyrrolidine-3,4-diol] | 0.05 to 0.25 µM
CN1CC2(C1)CN([C@H]1CC[C@H](n3cc(-c4ccc(Oc5ccccc5)cc4)c4c(N)ncnc43)CC1)C2 [Example 79, 7-((trans)-4-(6-methyl-2,6-diazaspiro[3.3]heptan-2-yl)cyclohexyl)-5-(4-phenoxyphenyl)-7H-pyrrolo[2,3-d]pyrimidin-4-amine] | 0.05 to 0.25 µM
CN1CC2(C1)CN([C@H]1CC[C@@H](n3cc(-c4ccc(Oc5ccccc5)cc4)c4c(N)ncnc43)CC1)C2 [Example 80, 7-((cis)-4-(6-methyl-2,6-diazaspiro[3.3]heptan-2-yl)cyclohexyl)-5-(4-phenoxyphenyl)-7H-pyrrolo[2,3-d]pyrimidin-4-amine] | 0.25 to 10 µM
Nc1ncn([C@H]2CC[C@H](n3cc(-c4ccc(Oc5ccccc5)cc4)c4c(N)ncnc43)CC2)n1 [Example 81, 7-((trans)-4-(3-amino-1H-1,2,4-triazol-1-yl)cyclohexyl)-5-(4-phenoxyphenyl)-7H-pyrrolo [2,3-d]pyrimidin-4-amine] | < 0.05 µM

Other lines, results leading:

IC50 | SMILES
< 0.05 µM | CC1(N)CCN([C@H]2CC[C@@H](n3cc(-c4ccc(Oc5ccccc5)cc4)c4c(N)ncnc43)CC2)CC1 [Example 51, 7-((cis)-4-(4-amino-4-methylpiperidin-1-yl)cyclohexyl)-5-(4-phenoxyphenyl)-7H pyrrolo[2,3-d]pyrimidin-4-amine]
< 0.05 µM | Nc1ncnc2c1c(-c1ccc(Oc3ccccc3)cc1)cn2[C@H]1CC[C@H](N2CCC(N)CC2)CC1 [Example 52, 7-((trans)-4-(4-aminopiperidin-1-yl)cyclohexyl)-5-(4-phenoxyphenyl)-7H-pyrrolo[2,3-d]pyrimidin-4-amine]
0.05 to 0.25 µM | Nc1ncnc2c1c(-c1ccc(Oc3ccccc3)cc1)cn2[C@H]1CC[C@@H](N2CCC(N)CC2)CC1 [Example 53, 7-((cis)-4-(4-aminopiperidin-1-yl)cyclohexyl)-5-(4-phenoxyphenyl)-7H-pyrrolo[2,3-d]pyrimidin-4-amine]
< 0.05 µM | Nc1ncnc2c1c(-c1ccc(Oc3ccccc3)cc1)cn2[C@H]1CC[C@H](N2CCC[C@H](N)C2)CC1 [Example 56, 7-((trans)-4-((S)-3-aminopiperidin-1-yl)cyclohexyl)-5-(4-phenoxyphenyl)-7H-pyrrolo[2,3-d]pyrimidin-4-amine]
< 0.05 µM | Nc1ncnc2c1c(-c1ccc(Oc3ccccc3)cc1)cn2[C@H]1CC[C@@H](N2CCC[C@H](N)C2)CC1 [Example 57, 7-((cis)-4-((S)-3-aminopiperidin-1-yl)cyclohexyl)-5-(4-phenoxyphenyl)-7H-pyrrolo[2,3-d]pyrimidin-4-amine]
0.05 to 0.25 µM | Nc1ncnc2c1c(-c1ccc(Oc3ccccc3)cc1)cn2[C@H]1CC[C@@H](N2CCC[C@@H](N)C2)CC1 [Example 58, 7-((cis)-4-((R)-3-aminopiperidin-1-yl)cyclohexyl)-5-(4-phenoxyphenyl)-7H-pyrrolo[2,3-d]pyrimidin-4-amine]
< 0.05 µM | Nc1ncnc2c1c(-c1ccc(Oc3ccccc3)cc1)cn2[C@H]1CC[C@H](N2CCC[C@@H](N)C2)CC1 [Example 59, 7-((trans)-4-((R)-3-aminopiperidin-1-yl)cyclohexyl)-5-(4-phenoxyphenyl)-7H-pyrrolo[2,3-d]pyrimidin-4-amine]
0.25 to 10 µM | Nc1ncnc2c1c(-c1ccc(Oc3ccccc3)cc1)cn2[C@H]1CC[C@H](N2CCSCC2)CC1 [Example 63, 5-(4-phenoxyphenyl)-7-((trans)-4-thiomorpholinocyclohexyl)-7H-pyrrolo[2,3-d]pyrimidin-4-amine]
0.05 to 0.25 µM | Nc1ncnc2c1c(-c1ccc(Oc3ccccc3)cc1)cn2[C@H]1CC[C@H](N2CCS(=O)(=O)CC2)CC1 [Example 65, 4-((trans)-4-(4-amino-5-(4-phenoxyphenyl)-7H-pyrrolo[2,3-d]pyrimidin-7-yl)cyclohexyl)thiomorpholine 1,1-dioxide]
0.05 to 0.25 µM | Nc1ncnc2c1c(-c1ccc(Oc3ccccc3)cc1)cn2[C@H]1CC[C@@H](N2CCS(=O)(=O)CC2)CC1 [Example 66, 4-((cis)-4-(4-amino-5-(4-phenoxyphenyl)-7H-pyrrolo[2,3-d]pyrimidin-7-yl)cyclohexyl)thiomorpholine 1,1-dioxide]
0.05 to 0.25 µM | CP1(=O)CCN([C@H]2CC[C@H](n3cc(-c4ccc(Oc5ccccc5)cc4)c4c(N)ncnc43)CC2)CC1 [Example 67, 1-((trans)-4-(4-amino-5-(4-phenoxyphenyl)-7H-pyrrolo[2,3-d]pyrimidin-7-yl)cyclohexyl)-4-methyl-1,4-azaphosphinane 4-oxide]
< 0.05 µM | CP1(=O)CCN([C@H]2CC[C@@H](n3cc(-c4ccc(Oc5ccccc5)cc4)c4c(N)ncnc43)CC2)CC1 [Example 68, 1-((cis)-4-(4-amino-5-(4-phenoxyphenyl)-7H-pyrrolo[2,3-d]pyrimidin-7-yl)cyclohexyl)-4-methyl-1,4-azaphosphinane 4-oxide]
< 0.05 µM | Nc1ncnc2c1c(-c1ccc(Oc3ccccc3)cc1)cn2[C@H]1CC[C@H](N2CC(N)C2)CC1 [Example 77, 7-((trans)-4-(3-aminoazetidin-1-yl)cyclohexyl)-5-(4-phenoxyphenyl)-7H-pyrrolo[2,3-d]pyrimidin-4-amine]
0.25 to 10 µM | Nc1ncnc2c1c(-c1ccc(Oc3ccccc3)cc1)cn2[C@H]1CC[C@@H](N2CC(N)C2)CC1 [Example 78, 7-((cis)-4-(3-aminoazetidin-1-yl)cyclohexyl)-5-(4-phenoxyphenyl)-7H-pyrrolo[2,3-d]pyrimidin-4-amine]
